These are literature values, as cited in patent EP4574138A1, “A TABLET COMPOSITION COMPRISING IVACAFTOR” (Sanovel Ilac Sanayi Ve Ticaret Anonim Sirketi, priority 2023, dated 2025).

Bounds are passed on as bounds.

For this data set the following is noted: background description of the drug substance.

As for `CC(C)(C)c1cc(C(C)(C)C)c(NC(=O)c2c[nH]c3ccccc3c2=O)cc1O` [Ivacaftor, N-(2,4-di-tert-butyl-5-hydroxyphenyl)-1,4-dihydro-4-oxoquinoline-3-carboxamide], the “solubility in water (practically insoluble in water)” value was less than 0.05 microgram/mL.
